{"source": "patent US8512522B2", "about": "“Method of producing paper with methane reduction ingredients” (priority 2011, dated 2013)", "origin": "cited, not measured here", "key": {"Anaerobic digester": {"tested_on": "Anaerobic digester", "conditions": "methane inhibition"}, "Anaerobic medium": {"tested_on": "Anaerobic medium", "conditions": "methane inhibition"}, "[1]": {"tested_on": "Anaerobic digested sludge + activated sludge"}, "Sewage sludge": {"tested_on": "Sewage sludge", "conditions": "methane inhibition"}, "Marine sediments": {"tested_on": "Marine sediments", "conditions": "methane inhibition"}}, "note": "Where two headings read alike, the source gives them in different places."}
{"molecule": "Sodium", "values": [{"measurement": "Suppressive Concentration", "setting": "Anaerobic digester", "result": ">3,500 mg/L"}]}
{"molecule": "[Mg+2]", "note": "[Magnesium]", "values": [{"measurement": "Suppressive Concentration", "setting": "Anaerobic digester", "result": ">1,000 mg/L"}]}
{"molecule": "[Ni+2]", "note": "[Nickel (Ni2+)]", "values": [{"measurement": "Suppressive Concentration", "setting": "Anaerobic medium", "result": 2.5, "unit": "mM"}]}
{"molecule": "O=S(=O)(O)CCBr", "note": "[2-Bromoethane sulfonic acid]", "values": [{"measurement": "Suppressive Concentration", "setting": "[1]; completely inhibited, Parameswaran et al., 2009", "result": 50, "unit": "mM"}, {"measurement": "Suppressive Concentration", "setting": "[1]; potently inhibited, Chae et al., 2010", "result": "0.1 to 0.27", "unit": "mM"}]}
{"molecule": "[Zn+2]", "note": "[Zinc (Zn2+)]", "values": [{"measurement": "Suppressive Concentration", "setting": "Anaerobic digester", "result": "10 to 250", "unit": "mg/L"}]}
{"molecule": "[Cu+2]", "note": "[Copper (Cu2+)]", "values": [{"measurement": "Suppressive Concentration", "setting": "Anaerobic digester", "result": "10 to 250", "unit": "mg/L"}]}
{"molecule": "[Ca+2]", "note": "[Calcium]", "values": [{"measurement": "Suppressive Concentration", "setting": "Anaerobic digester", "result": ">2,500 mg/L"}]}
{"molecule": "[Fe+3]", "note": "[Ferric iron (Fe3+)]", "values": [{"measurement": "Suppressive Concentration", "setting": "Sewage sludge", "result": 21, "unit": "mg/L"}]}
{"molecule": "C=C", "note": "[Ethylene]", "values": [{"measurement": "Suppressive Concentration", "setting": "Marine sediments", "result": ">5", "unit": "% v/v"}]}
{"molecule": "[K+]", "note": "[Potassium]", "values": [{"measurement": "Suppressive Concentration", "setting": "Anaerobic digester", "result": ">2,500 mg/L"}]}
